The subject of data set [1] is AR-amplified prostate cancer cells. To be noted: cited from earlier work.
In data set [2] the target is T1, AR protein (Homo sapiens, UniProt P10275).
T1 construct: endogenous in cells; host or cells: VCaP
T1 sequence (P10275 1-920): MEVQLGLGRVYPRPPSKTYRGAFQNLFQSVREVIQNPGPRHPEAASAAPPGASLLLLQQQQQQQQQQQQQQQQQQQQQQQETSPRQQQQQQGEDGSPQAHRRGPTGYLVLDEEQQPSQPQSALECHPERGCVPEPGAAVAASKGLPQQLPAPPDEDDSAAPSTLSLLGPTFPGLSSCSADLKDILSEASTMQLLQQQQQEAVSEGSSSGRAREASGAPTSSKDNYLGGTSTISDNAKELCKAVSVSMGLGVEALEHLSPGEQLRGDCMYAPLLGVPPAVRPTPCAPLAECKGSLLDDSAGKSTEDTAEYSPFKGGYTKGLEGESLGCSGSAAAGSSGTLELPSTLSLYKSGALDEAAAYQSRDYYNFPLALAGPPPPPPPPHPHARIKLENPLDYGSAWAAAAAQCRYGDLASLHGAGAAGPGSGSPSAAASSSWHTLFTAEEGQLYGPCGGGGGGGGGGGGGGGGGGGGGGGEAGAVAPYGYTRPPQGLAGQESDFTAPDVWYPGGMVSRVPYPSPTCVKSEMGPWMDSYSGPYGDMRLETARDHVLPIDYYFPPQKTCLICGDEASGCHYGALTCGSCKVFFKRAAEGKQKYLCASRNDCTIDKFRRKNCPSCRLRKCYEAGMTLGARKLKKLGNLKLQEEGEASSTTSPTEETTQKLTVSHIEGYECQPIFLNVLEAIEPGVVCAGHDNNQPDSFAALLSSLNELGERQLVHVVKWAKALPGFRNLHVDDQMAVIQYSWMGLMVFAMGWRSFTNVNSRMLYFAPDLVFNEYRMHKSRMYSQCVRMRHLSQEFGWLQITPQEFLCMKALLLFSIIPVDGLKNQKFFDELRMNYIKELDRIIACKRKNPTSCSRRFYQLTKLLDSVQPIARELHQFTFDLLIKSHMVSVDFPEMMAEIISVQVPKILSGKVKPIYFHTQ
The experiment in a line: Western blotting analysis of AR protein levels in VCaP cells, band quantification, DC50/DC90. In kind it is cell-based. To be noted: prostate cancer Vcap cells, 24 h treatment. A digest of the protocol:
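VCaP cells treated with compounds, lysed in RIPA and probed for AR by Western blot with GAPDH loading control. Band intensities normalised to GAPDH; DC50 from curve fit, DC90 calculated from DC50 and Hill slope via four-parameter equation.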

For data set [3], the system named is AR protein. Put plainly: Western blotting analysis of AR protein levels in 22RV1 cells, band quantification, DC50/DC90. To be noted: prostate cancer 22RV1 cells, 24 h treatment. In kind it is cell-based. How it is done:
(§1) The appropriate cell line, e.g., prostate cancer LNCaP, Vcap, or 22RV1 cell line, was treated with Compounds of the Disclosure as indicated. The treated cells were lysed with RIPA buffer. The AR level in the cell lysates was examined by western blotting and a specific AR antibody (ab194196, Abcam, Cambridge, Mass. 02139) with concentration of 1:20,000. GAPDH was used as a loading control.
(§2) Bands were quantified with ImageJ software. The relative numbers of each band obtained from normalization with its corresponding GAPDH level were compared with Prism 8 software. The DC50 values were produced from Prism 8, and the DC90 values were calculated with an equation=Bottom+(Top−Bottom)/(1+10^((Log EC50−X)*HillSlope) based on DC50 and Hillslope values.

Data set [4] deals with T2, AR protein (Homo sapiens, UniProt P10275, T878A).
T2 construct: endogenous in cells; host or cells: LNCaP
T2 sequence (P10275 1-920 T878A): T1 sequence (P10275 1-920) with T878A
The experiment in a line: Western blotting analysis of AR protein levels in LNCaP cells, band quantification, DC50/DC90. It is filed as cell-based. To be noted: prostate cancer LNCaP cells, 24 h treatment. How it is done:
as §1, §2
Background: A western blot detects proteins with antibodies after separation by electrophoresis.

Data set [5] in a line: Mouse PK studies after oral and IV dosing. In kind it is in vivo. How it is done:
The pharmacokinetics of representative Compounds of the Disclosure were determined after oral and IV dosing at the concentrations indicated in mouse (Table 7). […] The vehicles used in these studies are either (i) 10% PEG400+90% PBS (adjusted to pH to 8.0 by 0.5 N NaOH); or (ii) 100% PEG200.

Data set [6] has as its system AR protein. Put plainly: AR degradation in MDA-MB-453 cells (Western blotting). It is filed as cell-based. Particulars: 24 hr treatment. The method, then:
as §1, §2

The mark [7] stands for this setting: calculated from DC50 and Hillslope.

Numbering of substitutions follows the chain as printed. Read-outs that look alike come from different tables or passages of the source.

As to `Cc1ncsc1-c1ccc(CNC(=O)C2C[C@@H](O)CN2C(=O)[C@@H](NC(=O)COCCCCOc2ccc(-c3ccc(N4C(=S)N(c5ccc(C#N)c(C(F)(F)F)c5)C(=O)C4(C)C)cc3)cc2)C(C)(C)C)cc1` (stereo partly drawn) [ARCC-4, (4R)-1-((S)-2-(2-(4-((4′-(3-(4-cyano-3-(trifluoromethyl)phenyl)-5,5-dimethyl-4-oxo-2-thioxoimidazolidin-1-yl)-[1,1′-biphenyl]-4-yl)oxy)butoxy)acetamido)-3,3-dimethylbutanoyl)-4-hydroxy-N-(4-(4-methylthiazol-5-yl)benzyl)pyrrolidine-2-carboxamide], in data set [1], the “inducing apoptosis and inhibiting proliferation, compared with enzalutamide” value is “more potent and effective than enzalutamide”.

The AUC(0-t) is exposure summed from dosing to a finite time, without extrapolation to infinity. Broadly, the Cmax is the maximum level reached in the sampled fluid or tissue. As a reminder, the Tmax is the time at which the peak concentration occurs. Consider `C[C@H]1CC2(CCN(c3ccc(C(=O)N4CCC(N5Cc6cc7c(cc6C5)C(=O)N(C5CCC(=O)NC5=O)C7=O)CC4)cc3)CC2)CN1c1ccc(C#N)c(Cl)c1` (stereo partly drawn) [Cpd. No. 307, 2-chloro-4-((3S)-8-(4-(4-(6-(2,6-dioxopiperidin-3-yl)-5,7-dioxo-3,5,6,7-tetrahydropyrrolo[3,4-f]isoindol-2(1H)-yl)piperidine-1-carbonyl)phenyl)-3-methyl-2,8-diazaspiro[4.5]decan-2-yl)benzonitrile], for which the DC90 at AR protein [2] (setting [7]) is listed as 0.199 nM; in the data set on AR protein [3] (setting [7]), 3.1 nM; at AR protein [4] (setting [7]), 0.11 nM. Moreover, the DC50 at AR protein [2] (read-out: DC50) was 0.046 nM; in the data set on AR protein [3] it was 0.9 nM; at AR protein [4] (read-out: DC50), 0.082 nM. Further, the F in data set [5] (PO 5 mg/kg vs IV 2 mg/kg) came out at 67%. For the same compound, the AUC(0-t) was found to be 50500 ng·h/mL in data set [5] (in vivo, iv, 2 mg/kg, IV, dose 2 mg/kg, read-out: IV AUC(0 − t)) and 85200 ng·h/mL in data set [5] (in vivo, po, 5 mg/kg, PO, dose 5 mg/kg, read-out: PO AUC(0 − t)). Also, the clearance in data set [5] (in vivo, iv, 2 mg/kg, IV, dose 2 mg/kg, read-out: IV Cl (converted)) is 0.667 mL/min/kg. Further, the half-life was 4.34 h in data set [5] (in vivo, iv, 2 mg/kg, IV, dose 2 mg/kg, read-out: IV T1/2 (converted)) and 4.4 h in data set [5] (in vivo, po, 5 mg/kg, PO, dose 5 mg/kg, read-out: PO T1/2 (converted)). Besides, the Vd in data set [5] (in vivo, iv, 2 mg/kg, IV, dose 2 mg/kg, read-out: IV VSS) was 0.23 L/kg. This compound had a Cmax in data set [5] (in vivo, po, 5 mg/kg) of 9120 ng/mL. Moreover, the Tmax in data set [5] (in vivo, po, 5 mg/kg) is 2 h.

As for `N#Cc1ccc(OC2CC3(C2)CN(C(=O)c2ccc(C4CCN(CC5CCN(c6ccc7c(c6)C(=O)N(C6CCC(=O)NC6=O)C7=O)CC5)CC4)cc2)C3)cc1Cl` (centres unmarked) [compound 480], in the data set with AR protein [6], the “degradation at 10 nM” value is recorded as “B (>50% degradation but <90% (24 hr treatment))” and the “degradation at 100 nM” value was “A (>90% degradation (24 hr treatment))”.

As for `N#Cc1ccc(N2CC3(CN(C(=O)c4ccc(C5CCN(CC6CCN(c7ccc8c(c7)C(=O)N(C7CCC(=O)NC7=O)C8=O)CC6)CC5)cc4)C3)C2)cc1Cl` (centres unmarked) [compound 481], in the data set on AR protein [6], the “degradation at 10 nM” value is “B (>50% degradation but <90% (24 hr treatment))” and the “degradation at 100 nM” value is reported as “A (>90% degradation (24 hr treatment))”.

The values above are taken from patent US20220380368A1, “SPIROCYCLIC ANDROGEN RECEPTOR PROTEIN DEGRADERS” (THE REGENTS OF THE UNIVERSITY OF MICHIGAN, priority 2019, published 2022).
